What was measured:
Plasmopara viticola = assay: Antisporulant activity against vine downy mildew (PVA); assay type: in vivo; conditions: vine leaves, antisporulant foliar spray, 600 ppm, 750 l/ha
Procedure, shortened: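 Cabernet Sauvignon vines (~8 cm) inoculated on lower leaf surfaces with 5×10^4 zoosporangia/ml, held 24 h at 21° C high humidity then 24 h glasshouse. Infected leaves sprayed underside with 600 ppm compound in 1:1 water/acetone, 0.04% Tween 20, 750 l/ha; 96 h glasshouse, 24 h humidity. Sporulating leaf area rated versus control.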

Alternaria solani = assay: Activity against tomato early blight (AS); assay type: in vivo; conditions: Table VI; tomato seedlings, contact prophylactic foliar spray, 4 days
Procedure, shortened: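 Foliar contact prophylactic spray on tomato seedlings (cv Outdoor Girl, second true leaf expanded) in acetone/water 50:50 with 0.04% Tween 20; 24 h at 20° C, 40% R.H., then inoculation with 10^4 spores/ml A. solani conidia. Kept moist at 21° C; lesion cover rated 4 days post-inoculation against untreated or diluent-sprayed controls.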

Botrytis cinerea = assay: Direct protectant activity against broad bean grey mould (BCB); assay type: in vivo; conditions: direct protectant foliar spray, 600 ppm, 4 days
Procedure, shortened: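 Broad bean plants (cv The Sutton, two leaf pairs) sprayed on upper leaf surfaces at 600 ppm, then inoculated 24 h later with 10^6 conidia/ml. Kept 4 days at 22 °C, high humidity; disease control rated from % leaf area with lesions against untreated or diluent controls.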

Leptosphaeria nodorum = assay: Activity against wheat leafspot (LN); assay type: in vivo; conditions: direct therapeutic foliar spray, 600 ppm, 6-8 days
Procedure, shortened: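 Wheat cv Norman at single-leaf stage spray-inoculated with 1.5×10^6 conidia/ml, held 24 h at high humidity, then sprayed therapeutically with test compound at 600 ppm. Kept 6-8 days at 22° C, 70% humidity; lesion density per leaf rated against untreated or diluent-sprayed controls.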

[1] = tested on: Erysiphe graminis f.sp. hordei; assay: Activity against barley powdery mildew, direct therapeutic (EGT); assay type: in vivo; conditions: direct therapeutic foliar spray, 600 ppm, up to 7 days
Procedure, shortened: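 Barley seedlings (cv. Golden Promise, single-leaf stage) were dusted with mildew conidia one day before a therapeutic foliar spray of 600 ppm compound. Plants were kept at 18 °C and 40% humidity for up to 7 days, and sporulating leaf area was rated against untreated or diluent-sprayed controls.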

[2] = tested on: Erysiphe graminis f.sp. hordei; assay: Direct protectant activity against barley powdery mildew (EGP); assay type: in vivo; conditions: direct protectant foliar spray, 8 days
Procedure, shortened: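 Barley seedlings (cv Golden Promise, single-leaf stage) were foliar-sprayed, held 24 h at 18 °C/40% RH, then dusted with mildew conidia. After 8 days at 18 °C/40% RH, sporulating leaf area was scored as a rating against untreated or diluent-sprayed controls.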

Phytophthora infestans = assay type: in vivo; conditions: tomato, direct protectant foliar spray
[3] = tested on: Pseudocercosporella herpotrichoides; assay: Activity against wheat eyespot in-vitro (PHI); assay type: cell-based; conditions: 10 ppm, 10 days, 20° C., mycelial growth
Procedure, shortened: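 P. herpotrichoides mycelial fragments (5×10^4/ml) grown in half-strength PDB with compound at 10 ppm final, added from acetone. Incubated 10 days at 20 °C; mycelial growth rated against untreated or diluent controls.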

Rhizoctonia solani = assay: Activity against Rhizoctonia in-vitro (RSI); assay type: cell-based; conditions: 10 ppm, 10 days, 20° C., mycelial growth
Procedure, shortened: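 R. solani mycelial fragments (5×10^4/ml) in half-strength Potato Dextrose Broth with compound added from acetone to 10 ppm final. Mycelial growth assessed after 10 days at 20° C, rated against untreated or diluent control.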

Venturia inaequalis = assay: Activity against apple scab in-vitro (VII); assay type: cell-based; conditions: 10 ppm, 10 days, 20° C., mycelial growth
Procedure, shortened: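 Compound in acetone was tested at 10 ppm final in half-strength Potato Dextrose Broth inoculated with V. inaequalis mycelial fragments and spores at 5×10^4 propagules/ml. After 10 days at 20° C, mycelial growth was rated against untreated or diluent controls.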

Pyricularia oryzae = assay type: in vivo; conditions: rice seedlings, direct therapeutic foliar spray, 600 ppm, 4-5 days

Structure (SMILES) | disease control rating PVA (Plasmopara viticola) | disease control rating AS (Alternaria solani) | disease control rating BCB (Botrytis cinerea) | disease control rating LN (Leptosphaeria nodorum) | disease control rating EGT [1] | disease control rating EGP [2] | disease control rating PIP (Phytophthora infestans) | disease control rating PHI [3] | disease control rating RSI (Rhizoctonia solani) | disease control rating VII (Venturia inaequalis) | disease control rating PO (Pyricularia oryzae)
CC(C)CNC1COC2(CCC(C(C)(C)C)CC2)C1 (centres unmarked) [Compound 66] | 0 (less than 50% disease control) | 0 (less than 50% disease control) | 2 (greater than 80% disease control) | 0 (less than 50% disease control) | 2 (greater than 80% disease control) | 2 (greater than 80% disease control) | 0 (less than 50% disease control) | 0 (less than 50% disease control) | 0 (less than 50% disease control) | 0 (less than 50% disease control) | 0 (less than 50% disease control)
CN(C)C1COC2(CCC(C(C)(C)C)CC2)C1 (centres unmarked) [Compound 67] | 0 (less than 50% disease control) | 0 (less than 50% disease control) | 0 (less than 50% disease control) | 1 (about 50-80% disease control) | 2 (greater than 80% disease control) | 2 (greater than 80% disease control) | 2 (greater than 80% disease control) | 0 (less than 50% disease control) | 0 (less than 50% disease control) | 0 (less than 50% disease control) | 1 (about 50-80% disease control)
CCN(CC)C1COC2(CCC(C(C)(C)C)CC2)C1 (centres unmarked) [Compound 68] | 0 (less than 50% disease control) | 0 (less than 50% disease control) | 0 (less than 50% disease control) | 0 (less than 50% disease control) | 2 (greater than 80% disease control) | 2 (greater than 80% disease control) | 0 (less than 50% disease control) | 0 (less than 50% disease control) | 0 (less than 50% disease control) | 1 (about 50-80% disease control) | 1 (about 50-80% disease control)
CCCCCCN(CCCCCC)C1COC2(CCC(C(C)(C)C)CC2)C1 (centres unmarked) [Compound 69] | 0 (less than 50% disease control) | 0 (less than 50% disease control) | 0 (less than 50% disease control) | 0 (less than 50% disease control) | 2 (greater than 80% disease control) | 2 (greater than 80% disease control) | 0 (less than 50% disease control) | 0 (less than 50% disease control) | 0 (less than 50% disease control) | 2 (greater than 80% disease control) | 1 (about 50-80% disease control)
CC(C)(C)C1CCC2(CC1)CC(NC1CCCC1)CO2 (centres unmarked) [Compound 70] | 0 (less than 50% disease control) | 1 (about 50-80% disease control) | 0 (less than 50% disease control) | 0 (less than 50% disease control) | 2 (greater than 80% disease control) | 2 (greater than 80% disease control) | 2 (greater than 80% disease control) | 0 (less than 50% disease control) | 0 (less than 50% disease control) | 1 (about 50-80% disease control) | 0 (less than 50% disease control)
CC(C)(C)C1CCC2(CC1)CC(NC1CC1)CO2 (centres unmarked) [Compound 71] | 0 (less than 50% disease control) | 0 (less than 50% disease control) | 0 (less than 50% disease control) | 1 (about 50-80% disease control) | 2 (greater than 80% disease control) | 2 (greater than 80% disease control) | 2 (greater than 80% disease control) | 0 (less than 50% disease control) | 0 (less than 50% disease control) | 1 (about 50-80% disease control) | 0 (less than 50% disease control)
CCCCCN(CC)C1COC2(CCC(C(C)(C)C)CC2)C1 (centres unmarked) [Compound 72] | 0 (less than 50% disease control) | 0 (less than 50% disease control) | 0 (less than 50% disease control) | 0 (less than 50% disease control) | 2 (greater than 80% disease control) | 2 (greater than 80% disease control) | 0 (less than 50% disease control) | 0 (less than 50% disease control) | 0 (less than 50% disease control) | 1 (about 50-80% disease control) | 0 (less than 50% disease control)
CCCCCN(CCC)C1COC2(CCC(C(C)(C)C)CC2)C1 (centres unmarked) [Compound 73] | 0 (less than 50% disease control) | 0 (less than 50% disease control) | 1 (about 50-80% disease control) | 0 (less than 50% disease control) | 2 (greater than 80% disease control) | 2 (greater than 80% disease control) | 0 (less than 50% disease control) | 0 (less than 50% disease control) | 0 (less than 50% disease control) | 0 (less than 50% disease control) | 0 (less than 50% disease control)
CCCCCN(CCCC)C1COC2(CCC(C(C)(C)C)CC2)C1 (centres unmarked) [Compound 74] | 0 (less than 50% disease control) | 0 (less than 50% disease control) | 0 (less than 50% disease control) | 0 (less than 50% disease control) | 2 (greater than 80% disease control) | 2 (greater than 80% disease control) | 0 (less than 50% disease control) | 0 (less than 50% disease control) | 0 (less than 50% disease control) | 0 (less than 50% disease control) | 0 (less than 50% disease control)
CCCCCN(CC(C)C)C1COC2(CCC(C(C)(C)C)CC2)C1 (centres unmarked) [Compound 75] | 0 (less than 50% disease control) | 0 (less than 50% disease control) | 2 (greater than 80% disease control) | 0 (less than 50% disease control) | 2 (greater than 80% disease control) | 2 (greater than 80% disease control) | 0 (less than 50% disease control) | 0 (less than 50% disease control) | 0 (less than 50% disease control) | 0 (less than 50% disease control) | 0 (less than 50% disease control)

— patent US5591741A, “Fungicidal spiroheterocyclic derivatives” (American Cyanamid Company, priority 1993, dated 1997)
